In US9986723B2, “Screen and use of therapeutics for pancreatic ductal adenocarcinoma” (The Board of Regents of the University of Texas System, priority 2014, dated 2018):

Assays:
cell migration = assay: Scratch migration assay; format: cell-based; conditions: warfarin 2 μM, 16 hrs
Description: (FIG. 24A) HEK293 cells engineered to stably express recombinant Gas6 were grown in the presence of Vitamin K or Vitamin K+warfarin. Gas6 levels and γ-carboxylation were assayed by immunoblotting conditioned media. Conditioned media from untransfected HEK293 cells was used as a negative control. (FIG. 24B) Panc1 cells were grown overnight in media with 1% serum with no additions (NT), warfarin (2 μM) or BGB324 (2 μM). Lysates were probed for total Axl (tAxl) and phosphorylated Axl (pAxl). (FIG. 24C) Panc1 cells were grown in the presence of control media, Vitamin K, warfarin or warfarin+Vitamin K. The level of phosphorylated Axl (pAXL, red) was determined by immunofluorescence. (FIG. 24D) Panc1 cells were grown overnight in media with 1% serum with no additions (control), warfarin (1 μM), Gas6 (1.3 nM) or Gas6+warfarin. Lysates were probed for phosphorylated Akt (pAkt) and actin. (FIG. 24E) Lysates from Panc1 tumors harvested from mice treated with control or warfarin were probed for expression of tAxl, pAxl, actin, pAKT, tAKT, and cleaved Parp. (FIG. 24F) The effect of warfarin on cell migration was assessed by a ‘scratch’ assay. Monolayers of the indicted cells were wounded with a pipet tip. The cells were incubated in media containing 2% serum+/−warfarin (2 μM) or media containing 2% serum+Gas6 (1.3 nM)+/−warfarin.

Capan-1 tumors = assay: Low dose warfarin in drinking water, orthotopic human tumor xenograft; format: in vivo, mouse
Description: (§1) (FIG. 23A) Primary tumor burden after therapy with warfarin. Therapy was initiated when implanted tumors were visible by ultrasound (˜10 mm^3) and consisted of control (normal drinking water) or warfarin, administered in the drinking water at 0.5 mg/L (immunocompetent mice: Pan02 (n=4, control; 3, warfarin), KIC (n=10, control; 8, warfarin)) or 1 mg/L (Panc-1 (n=10, control; 8, warfarin), AsPC-1 (n=8, control; 6, warfarin), Capan-1 (n=10, control; 7, warfarin)) and continued for 2-4 weeks until control mice were moribund. Therapy in KIC mice was initiated at 3 weeks of age and continued for 4 weeks. (FIG. 23B) Metastases were determined grossly upon sacrifice and confirmed by histological evaluation of the liver. […] Incidence of metastasis is also indicated. […] Tumor volume determined by serial ultrasound. […] Therapy with mAb 10C9 (250 μg 2×/week) was initiated when tumors were established as above and persisted for 4 weeks. […] Error bars indicate s.e.m.
(§2) Animal studies. All animals were housed in a pathogen-free facility with 24-hour access to food and water. Experiments were approved by, and conducted in accordance with, an IACUC approved protocol at UT Southwestern. LSL-Kras^G12D; Cdkn2a^lox/lox; p48^Cre (KIC) mice were generated as previously described (Ostapoff et al., 2014). Four- to 6-week-old female NOD/SCID and C57/B16 mice were obtained from an on campus supplier. A total of 1×10^6 AsPc-1, Panc-1, Mia Paca2, Capan-1, C5LM2, Mia shLuc and Mia shAxl or 5×10^5 Pan02 cells, were injected orthotopically as described (Ostapoff et al., 2014). Mice with established tumors, as determined by sonography were randomized to receive normal drinking water or water containing 1 mg/L (˜3.0 μM) warfarin for experiments in immunocompromised mice and 0.5 mg/L (˜1.5 μM) in experiments in immunocompetent animals with or without gemcitabine 25 mg/kg twice weekly depending on experimental design.

AsPC1 tumors = assay: as above; format: in vivo, mouse; conditions: warfarin 1 mg/L drinking water
Description: as §1, §2

Panc1 = assay: MTS cell growth assay, gemcitabine +/- warfarin; format: cell-based, human; conditions: warfarin 2 μM
Description: (§3) Cytotoxicity and augmentation of chemotherapy response was measured by MTS assays conducted in 96-well plates; cells were plated on day 0 and drug was added on day 1 in 4-fold dilutions. Maximum concentration of 2,000 nmol/L for gemcitabine was used with or without the addition of a constant concentration of 2 μM warfarin or 1.1 μM 10C9. Relative cell number was determined by adding MTS (Promega; final concentration […]), incubating for 1 to 3 hours at 37° C., and reading absorbance. Drug sensitivity curves and IC50s were calculated using in-house software.

ASPC = assay: MTS cell growth assay, gemcitabine +/- warfarin; format: cell-based, human; conditions: warfarin 2 μM
Description: as §3

primary PDA cells = assay: Rgs16::GFP PDA primary cell culture, live cell counts after 24 hr drug treatment; format: cell-based, mouse; conditions: 24 hr, gemcitabine 10 μM, BGB324 or warfarin 1 or 10 μM
Description: Cell proliferation counts of primary PDA culture after 24 hr treatment with (FIG. 20A) gemcitabine (purple round); (FIG. 20B) BGB324 (green round); (FIG. 20C) warfarin (blue round); or (FIG. 20D) BGB324 with warfarin (green or blue round) at the indicated concentrations. PDA primary cells were plated at equal density (black open circle) at the start. Next day, cells were treated with drugs (D, red font) for 24 hr (red line). Approximate cell number at the start of drug treatment was obtained from another plate with equal density (red open circle). At the end of treatment, cells in each group were counted and subsequent passages started with cells plated at equal density (grey asterisk). Drug treated groups were allowed to grow without drug selection thereafter. Control cells (Ctrl) on separate plates were grown without drug and counted at the end of each passage (black open circle). PDA live cell numbers were obtained via counts using a hemocytometer after 2% Trypan blue staining to distinguish between living and dead cells under an inverted microscope with 10× objective. Statistical significances are based on comparison of drug-treated cell counts to Ctrl. […] Statistical analyses were obtained by comparing counts of drug-treated cells to Ctrl via unpaired and two-tailed Student's t-test. *, p<0.05; **, p<0.01; ***, p<0.001; ****, p<0.0001. Asterisks match the color of the comparison group.
Rgs16::GFP PDA primary cell culture. Primary Rgs16::GFP PDA cells were harvested from 6-week-old KIC mice. Cells were grown in 25 mM Glucose DMEM (HyClone) with 10% FBS (Serum Source International), penicillin and streptomycin (Life Technologies) on rat tail collagen typel (BD Biosciences) coated plates (0.5 μg/cm^2) in a humidified incubator at 37° C. and 5% CO2. Cells reaching confluency were washed twice with PBS (HyClone) and lifted with 0.05% Trypsin-EDTA (HyClone) treatment up to 10 min in the incubator. For drug tests in FIGS. 20A-D, primary PDA cells were incubated with gemcitabine (10 μM dissolved in PBS), warfarin (1 μM or 10 μM dissolved in water), BGB324 (1 μM or 10 μM dissolved in DMSO) or warfarin and BGB324 together for 24 hrs in 37° C. incubator. PDA live cell numbers were obtained via counts using a hemocytometer following 2% trypan blue staining to distinguish dead cells under an inverted microscope.

Fold Reduction of gemcitabine IC50 in presence of warfarin (Panc1): 211 fold
Fold Reduction of gemcitabine IC50 in presence of warfarin (ASPC): 8.4 fold
Compound: CC(=O)CC(c1ccccc1)c1c(O)c2ccccc2oc1=O (racemic) [Warfarin]
basal and Gas6-induced cell migration (% wound closure) (cell migration): reduced
response of tumors to warfarin (Capan-1 tumors; no detectable Axl expression): nonresponsive
primary tumor growth (Capan-1 tumors; warfarin 1 mg/L drinking water): little effect
primary tumor growth (AsPC1 tumors): little effect
effect on cell viability and proliferation (primary PDA cells): little or no effect on cell growth
effect on cell viability and proliferation (primary PDA cells; listed as warfarin): no effect
